Literature values in patent US20150231092A1, “NOVEL EFFERVESCENT SACHET FORMULATIONS OF DAPOXETINE AND A PDE5 INHIBITOR” (Sanovell IIac Sanayi Ve Ticaret Anonim Sirketi, priority 2012, published 2015).

Columns and labels:
[1] = following oral administration
[2] = following oral administration; remark: listed apart in the source

solubility in water | SMILES | onset of action [1] [min] | onset of action takes (second sentence; apparently action time) [1] | binding to plasma proteins [2]
poorly soluble in water | CN1CC(=O)N2[C@H](c3ccc4c(c3)OCO4)c3[nH]c4ccccc4c3C[C@@H]2C1=O [tadalafil, (6R-trans)-6-(1,3-benzodioxol-5-yl)-2,3,6,7,12,12a-hexahydro-2-methyl-pyrazino[1′,2′:1,6]pyrido[3,4-b]indole-1,4-dione] | 15 | up to 36 hours | 
 | CN(C)[C@@H](CCOc1cccc2ccccc12)c1ccccc1 [dapoxetine] |  |  | almost completely binding to plasma proteins
